The source made the active and inactive calls.
Experiments:
[1] = target: FAD-linked sulfhydryl oxidase ALR (Homo sapiens, UniProt P55789); assay: inhibitors of human ALR sulfhydryl oxidase, dose response, biochemical, H2O2 detection, luminescence, cherry-pick (AID 493248)
[2] = target: SWI/SNF-related matrix-associated actin-dependent regulator of chromatin subfamily A member 2 (Homo sapiens, UniProt P51531); assay: Luminescence-based cell-based high throughput dose response assay to identify activators of the function of SWI/SNF related, matrix associated, actin dependent regulator of chromatin, subfamily a, member 2 (SMARCA2, BRM).; assay type: functional
Chain of SWI/SNF-related matrix-associated actin-dependent regulator of chromatin subfamily A member 2 (P51531 whole entry): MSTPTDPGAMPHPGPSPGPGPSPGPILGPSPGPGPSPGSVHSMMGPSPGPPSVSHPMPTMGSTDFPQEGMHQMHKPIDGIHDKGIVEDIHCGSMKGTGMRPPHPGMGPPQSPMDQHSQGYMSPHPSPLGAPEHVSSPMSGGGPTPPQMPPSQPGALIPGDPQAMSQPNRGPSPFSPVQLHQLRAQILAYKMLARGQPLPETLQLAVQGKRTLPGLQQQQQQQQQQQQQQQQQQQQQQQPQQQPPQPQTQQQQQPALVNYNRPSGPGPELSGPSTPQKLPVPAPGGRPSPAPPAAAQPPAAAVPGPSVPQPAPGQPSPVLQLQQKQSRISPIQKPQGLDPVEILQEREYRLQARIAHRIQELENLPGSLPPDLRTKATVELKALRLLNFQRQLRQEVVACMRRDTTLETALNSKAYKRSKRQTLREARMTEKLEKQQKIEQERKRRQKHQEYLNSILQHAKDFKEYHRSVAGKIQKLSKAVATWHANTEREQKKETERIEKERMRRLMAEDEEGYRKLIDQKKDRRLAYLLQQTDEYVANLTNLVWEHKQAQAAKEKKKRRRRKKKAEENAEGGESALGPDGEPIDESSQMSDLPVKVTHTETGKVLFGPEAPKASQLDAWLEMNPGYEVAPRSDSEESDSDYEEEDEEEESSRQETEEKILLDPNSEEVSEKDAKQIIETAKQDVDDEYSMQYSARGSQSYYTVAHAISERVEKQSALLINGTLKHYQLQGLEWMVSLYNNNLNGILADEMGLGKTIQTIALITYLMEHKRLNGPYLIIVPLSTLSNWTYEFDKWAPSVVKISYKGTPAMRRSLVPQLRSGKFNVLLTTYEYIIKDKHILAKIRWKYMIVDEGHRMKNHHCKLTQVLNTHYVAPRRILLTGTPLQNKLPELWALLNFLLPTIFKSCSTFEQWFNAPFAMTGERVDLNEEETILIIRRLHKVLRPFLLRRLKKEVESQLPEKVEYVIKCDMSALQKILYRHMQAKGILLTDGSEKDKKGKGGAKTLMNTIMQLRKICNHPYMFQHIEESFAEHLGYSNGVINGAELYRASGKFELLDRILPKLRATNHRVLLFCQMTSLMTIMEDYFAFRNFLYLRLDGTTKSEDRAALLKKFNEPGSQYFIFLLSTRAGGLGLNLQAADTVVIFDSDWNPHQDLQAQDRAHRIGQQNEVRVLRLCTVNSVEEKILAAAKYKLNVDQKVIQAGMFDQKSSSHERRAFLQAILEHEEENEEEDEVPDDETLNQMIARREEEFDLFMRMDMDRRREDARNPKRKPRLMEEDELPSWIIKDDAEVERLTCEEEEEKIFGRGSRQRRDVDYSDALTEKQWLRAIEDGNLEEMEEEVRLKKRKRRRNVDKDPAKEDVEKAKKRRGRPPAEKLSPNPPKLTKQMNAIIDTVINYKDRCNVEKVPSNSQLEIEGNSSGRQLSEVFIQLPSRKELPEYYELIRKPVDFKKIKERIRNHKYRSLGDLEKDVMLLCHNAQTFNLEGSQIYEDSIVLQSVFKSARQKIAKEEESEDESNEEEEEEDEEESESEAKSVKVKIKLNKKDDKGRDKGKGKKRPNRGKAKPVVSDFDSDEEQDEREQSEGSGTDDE

[3] = Counterscreen for activators of the function of SWI/SNF related, matrix associated, actin dependent regulator of chromatin, subfamily a, member 2 (SMARCA2, BRM): Luminescence-based cell-based high throughput dose response assay to identify non-selective compounds using the VP16 reporter assay.; assay type: functional
[4] = Fluorescence-based cell-based high throughput dose response assay for inhibitors of the interaction of nucleotide-binding oligomerization domain containing 2 (NOD2) and the receptor-interacting serine-threonine kinase 2 (RIPK2).; assay type: functional; conditions: Homo sapiens
Protein RecA = target: T1, Protein RecA (Mycobacterium tuberculosis, UniProt P9WHJ3); assay: Fluorescence Cell-Free Homogeneous Dose Retest to Identify Inhibitors of RecA-Intein Splicing Activity. [Related pubchem assays (depositor defined):AID2097, AID2223, AID489010, AID492950]; assay type: functional
T1 sequence (P9WHJ3 whole entry): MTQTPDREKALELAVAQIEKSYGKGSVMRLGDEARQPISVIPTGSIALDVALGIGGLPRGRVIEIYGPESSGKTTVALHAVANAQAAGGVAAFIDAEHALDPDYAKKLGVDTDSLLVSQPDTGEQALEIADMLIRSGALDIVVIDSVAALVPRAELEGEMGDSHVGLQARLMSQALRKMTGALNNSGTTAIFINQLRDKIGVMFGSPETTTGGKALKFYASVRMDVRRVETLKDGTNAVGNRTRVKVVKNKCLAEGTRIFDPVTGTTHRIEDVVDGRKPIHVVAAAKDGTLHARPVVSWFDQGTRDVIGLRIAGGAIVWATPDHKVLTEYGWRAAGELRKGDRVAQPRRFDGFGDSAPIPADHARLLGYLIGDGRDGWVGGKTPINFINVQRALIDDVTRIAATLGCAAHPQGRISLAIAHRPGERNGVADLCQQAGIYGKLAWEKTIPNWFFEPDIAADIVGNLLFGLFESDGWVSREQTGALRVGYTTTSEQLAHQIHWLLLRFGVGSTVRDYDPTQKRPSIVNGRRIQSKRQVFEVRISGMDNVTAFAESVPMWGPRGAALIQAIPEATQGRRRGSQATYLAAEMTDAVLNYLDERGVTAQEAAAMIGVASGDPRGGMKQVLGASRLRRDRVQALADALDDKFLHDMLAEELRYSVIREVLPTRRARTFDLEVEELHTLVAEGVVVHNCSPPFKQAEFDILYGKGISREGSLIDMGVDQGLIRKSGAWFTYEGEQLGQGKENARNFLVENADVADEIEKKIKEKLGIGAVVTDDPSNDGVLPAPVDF

Beta Lactamase = Beta Lactamase (Pseudomonas aeruginosa, UniProt Q932Y6); assay: beta-lactamase reporter inhibitor potency, dose response, artefact control for NOD2-RIPK2 interaction inhibitor project, BLA reporter cells, FRET fluorescence (AID 651552); assay type: functional, cell-based
Chain of Beta Lactamase (Q932Y6 whole entry): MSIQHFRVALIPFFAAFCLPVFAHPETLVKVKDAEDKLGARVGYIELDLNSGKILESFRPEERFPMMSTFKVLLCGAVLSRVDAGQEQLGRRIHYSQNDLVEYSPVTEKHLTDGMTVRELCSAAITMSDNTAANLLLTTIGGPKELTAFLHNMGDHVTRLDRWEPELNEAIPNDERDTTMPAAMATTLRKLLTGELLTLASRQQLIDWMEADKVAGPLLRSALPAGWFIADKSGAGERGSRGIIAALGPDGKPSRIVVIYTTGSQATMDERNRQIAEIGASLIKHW

[5] = control 3'UTR Renilla luciferase suppression, dose response, counter-screen for Shn3 inhibitor project, cell-based, Clone20-Shn3RL, cherry-picked (AID 624133); assay type: functional
[6] = Shn3 3'UTR reporter inhibitors, dose response, cell-based, Clone20 osteoblasts, firefly luciferase, cherry-picked (AID 624132); assay type: functional;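 further: firefly luciferase luminescence from reporter carrying the Shn3 3'UTR in osteoblasts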
[7] = HepG2 cell cytotoxicity, dose response, cytotoxicity control for Shn3 inhibitor project, CellTiter-Glo, cherry-picked (AID 624134); assay type: functional, cell-based
[8] = target: T2, Replicative DNA helicase DnaB (Mycobacterium tuberculosis, UniProt P9WMR3); assay: DnaB intein splicing inhibitors, dose response, biochemical, cell-free fluorescence (AID 449749); assay type: functional
T2 sequence (P9WMR3 whole entry): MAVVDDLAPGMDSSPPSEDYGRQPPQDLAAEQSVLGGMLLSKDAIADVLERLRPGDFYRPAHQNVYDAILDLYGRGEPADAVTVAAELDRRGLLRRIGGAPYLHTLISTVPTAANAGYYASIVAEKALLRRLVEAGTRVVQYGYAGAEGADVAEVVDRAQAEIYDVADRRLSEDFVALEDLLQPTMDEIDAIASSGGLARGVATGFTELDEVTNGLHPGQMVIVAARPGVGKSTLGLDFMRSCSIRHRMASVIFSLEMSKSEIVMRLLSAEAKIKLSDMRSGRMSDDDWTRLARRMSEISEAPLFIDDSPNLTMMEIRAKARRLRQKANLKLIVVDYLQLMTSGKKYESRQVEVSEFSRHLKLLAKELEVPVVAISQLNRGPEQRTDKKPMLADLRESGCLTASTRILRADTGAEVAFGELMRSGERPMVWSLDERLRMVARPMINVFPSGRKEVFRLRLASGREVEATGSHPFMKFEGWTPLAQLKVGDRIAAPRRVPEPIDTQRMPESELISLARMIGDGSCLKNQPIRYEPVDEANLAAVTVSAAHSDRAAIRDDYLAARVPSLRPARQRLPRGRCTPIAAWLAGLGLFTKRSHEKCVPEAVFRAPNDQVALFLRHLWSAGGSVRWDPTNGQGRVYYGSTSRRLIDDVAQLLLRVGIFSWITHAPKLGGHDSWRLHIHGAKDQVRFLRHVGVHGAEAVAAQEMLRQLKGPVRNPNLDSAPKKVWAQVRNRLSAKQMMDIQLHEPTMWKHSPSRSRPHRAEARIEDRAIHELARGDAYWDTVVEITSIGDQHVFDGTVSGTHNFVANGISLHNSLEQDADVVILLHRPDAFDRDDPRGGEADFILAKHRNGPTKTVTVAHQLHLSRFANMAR

cells = assay type: functional, cell-based
Protein Wnt-3a [9] = target: T3, Protein Wnt-3a (Mus musculus, UniProt P27467); assay: Wnt3a-driven reporter signaling inhibition, dose response, selectivity assay for Gli-SUFU antagonist project, Wnt-LIGHT cells, luminescence (AID 651570); assay type: functional; conditions: read-out: IC50_Mean;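 further: Wnt-LIGHT reporter cells stimulated with conditioned medium from Wnt3a-producing cells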
T3 sequence (P27467 whole entry): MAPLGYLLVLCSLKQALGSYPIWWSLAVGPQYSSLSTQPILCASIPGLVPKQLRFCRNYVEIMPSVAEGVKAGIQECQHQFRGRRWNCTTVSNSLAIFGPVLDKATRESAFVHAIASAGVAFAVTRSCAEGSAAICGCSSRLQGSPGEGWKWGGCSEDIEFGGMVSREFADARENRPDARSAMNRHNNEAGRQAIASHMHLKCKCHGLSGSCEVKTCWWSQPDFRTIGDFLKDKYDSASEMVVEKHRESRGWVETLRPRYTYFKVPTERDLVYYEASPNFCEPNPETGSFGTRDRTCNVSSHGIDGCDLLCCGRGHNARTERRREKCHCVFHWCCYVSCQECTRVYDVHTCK

Protein Wnt-3a [10] = target: T3, Protein Wnt-3a; assay: SAR analysis of small molecule antagonists of Gli-SUFU in a Wnt3a luminescent reporter assay.; assay type: functional
[11] = cytotoxicity in HEK-293T cells, dose response, cytotoxicity control for BCR NF-kB inhibitor project, luminescence, B-cell screen hits (AID 489021); assay type: functional, cell-based;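 further: HEK-293T cells carrying an NF-kB luciferase reporter; cells exposed to compound for about 14 hours before viability readout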
[12] = target: Glucose-6-phosphate 1-dehydrogenase (Homo sapiens, UniProt P11413); assay: human G6PD enzyme inhibitors, dose response, selectivity assay for P. falciparum G6PD inhibitor project, biochemical, fluorescence (AID 504792); assay type: functional
Chain of Glucose-6-phosphate 1-dehydrogenase (P11413 whole entry): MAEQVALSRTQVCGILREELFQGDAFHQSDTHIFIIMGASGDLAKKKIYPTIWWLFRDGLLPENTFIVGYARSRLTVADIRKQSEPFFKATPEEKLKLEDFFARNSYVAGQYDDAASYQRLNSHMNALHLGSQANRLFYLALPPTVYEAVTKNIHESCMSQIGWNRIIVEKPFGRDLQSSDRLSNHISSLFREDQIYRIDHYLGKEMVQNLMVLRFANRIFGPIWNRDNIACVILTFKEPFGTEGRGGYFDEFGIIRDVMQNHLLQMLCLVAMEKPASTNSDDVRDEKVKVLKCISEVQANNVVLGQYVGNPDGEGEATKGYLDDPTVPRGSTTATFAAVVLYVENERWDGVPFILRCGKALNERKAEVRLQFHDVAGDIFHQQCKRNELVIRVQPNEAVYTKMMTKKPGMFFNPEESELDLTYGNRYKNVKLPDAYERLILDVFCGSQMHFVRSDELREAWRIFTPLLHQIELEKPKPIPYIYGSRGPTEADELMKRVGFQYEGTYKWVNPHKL

[13] = target: Heat shock protein HSP 90-alpha (Homo sapiens, UniProt P07900); assay type: functional, organism-based
Vero = Vero cell cytotoxicity, cytotoxicity control for flavivirus capping enzyme inhibitors (AID 588742); assay type: functional; conditions: Chlorocebus sabaeus
Genome polyprotein = Genome polyprotein (dengue virus type 2, UniProt P29990); assay: Dengue-2 NS5 methyltransferase inhibitors, primary screen, biochemical, confirmation dose response (AID 588689); assay type: functional
Chain of Genome polyprotein (P29990 2492-3391 limits assumed): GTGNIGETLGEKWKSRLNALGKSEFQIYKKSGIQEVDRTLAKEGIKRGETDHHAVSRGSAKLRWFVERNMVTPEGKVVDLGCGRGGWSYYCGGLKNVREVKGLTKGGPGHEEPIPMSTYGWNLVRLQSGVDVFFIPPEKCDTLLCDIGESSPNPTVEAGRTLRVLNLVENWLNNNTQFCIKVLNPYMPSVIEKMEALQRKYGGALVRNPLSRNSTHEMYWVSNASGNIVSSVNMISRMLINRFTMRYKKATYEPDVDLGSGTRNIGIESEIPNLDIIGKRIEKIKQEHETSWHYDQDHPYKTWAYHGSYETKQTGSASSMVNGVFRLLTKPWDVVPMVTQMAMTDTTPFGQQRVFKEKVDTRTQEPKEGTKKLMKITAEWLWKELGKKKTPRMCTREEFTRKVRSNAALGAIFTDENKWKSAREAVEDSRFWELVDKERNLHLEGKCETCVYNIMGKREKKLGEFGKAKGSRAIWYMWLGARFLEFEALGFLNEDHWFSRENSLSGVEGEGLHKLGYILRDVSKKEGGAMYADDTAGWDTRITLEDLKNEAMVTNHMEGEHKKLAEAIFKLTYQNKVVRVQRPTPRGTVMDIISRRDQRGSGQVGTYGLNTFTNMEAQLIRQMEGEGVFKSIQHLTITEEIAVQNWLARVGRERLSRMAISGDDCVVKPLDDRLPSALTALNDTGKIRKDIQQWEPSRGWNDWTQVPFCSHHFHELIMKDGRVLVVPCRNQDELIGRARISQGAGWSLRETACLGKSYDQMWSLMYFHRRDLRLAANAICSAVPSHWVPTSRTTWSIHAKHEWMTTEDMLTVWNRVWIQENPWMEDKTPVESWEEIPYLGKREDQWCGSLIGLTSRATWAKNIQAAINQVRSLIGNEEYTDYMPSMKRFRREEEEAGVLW

[14] = target: T4, Rac GTPase-activating protein 1 (Homo sapiens, UniProt Q9H0H5); assay: MgcRacGAP GTPase-activating activity inhibitors, confirmation, biochemical, ADP Hunter fluorescence, primary and confirmatory (AID 624330); assay type: functional
T4 sequence (Q9H0H5 whole entry): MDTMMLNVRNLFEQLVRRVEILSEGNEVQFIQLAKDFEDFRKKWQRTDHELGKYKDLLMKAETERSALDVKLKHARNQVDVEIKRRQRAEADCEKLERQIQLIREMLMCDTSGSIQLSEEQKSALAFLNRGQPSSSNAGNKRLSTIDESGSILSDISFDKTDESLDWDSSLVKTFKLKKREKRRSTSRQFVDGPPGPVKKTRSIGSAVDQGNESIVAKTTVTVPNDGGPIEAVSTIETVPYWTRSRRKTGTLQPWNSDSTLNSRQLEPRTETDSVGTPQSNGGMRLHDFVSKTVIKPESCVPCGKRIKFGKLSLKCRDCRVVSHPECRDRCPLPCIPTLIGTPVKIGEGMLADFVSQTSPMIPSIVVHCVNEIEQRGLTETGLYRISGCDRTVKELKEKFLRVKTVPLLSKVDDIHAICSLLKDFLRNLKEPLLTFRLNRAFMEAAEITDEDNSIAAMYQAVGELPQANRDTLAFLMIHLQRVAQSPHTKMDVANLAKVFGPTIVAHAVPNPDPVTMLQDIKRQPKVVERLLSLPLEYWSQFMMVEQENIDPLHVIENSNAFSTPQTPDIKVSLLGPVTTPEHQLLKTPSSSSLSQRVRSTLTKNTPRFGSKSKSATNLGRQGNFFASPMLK

[15] = HeLa cell cytotoxicity, dose response, cytotoxicity control for MgcRacGAP inhibitor project (AID 624300); assay type: functional
[16] = target: Photoreceptor-specific nuclear receptor (Homo sapiens, UniProt Q9Y5X4); assay type: functional, cell-based;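 further: CHO-S cells with Gal4-NCOR and VP16-NR2E3 two-hybrid luciferase reporter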
Chain of Photoreceptor-specific nuclear receptor (Q9Y5X4 whole entry, the tested form may be a part): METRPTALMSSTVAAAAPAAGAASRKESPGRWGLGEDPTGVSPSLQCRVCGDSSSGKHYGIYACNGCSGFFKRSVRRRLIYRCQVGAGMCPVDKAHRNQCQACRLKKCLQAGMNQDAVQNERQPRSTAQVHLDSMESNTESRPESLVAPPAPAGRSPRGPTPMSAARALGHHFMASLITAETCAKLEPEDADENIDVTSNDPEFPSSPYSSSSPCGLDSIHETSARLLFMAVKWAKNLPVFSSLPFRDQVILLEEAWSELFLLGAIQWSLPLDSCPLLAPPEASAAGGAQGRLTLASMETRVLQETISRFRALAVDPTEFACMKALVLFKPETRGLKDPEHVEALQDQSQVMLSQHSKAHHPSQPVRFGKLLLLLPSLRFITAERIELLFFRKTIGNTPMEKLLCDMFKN

[17] = HEK293T cell cytotoxicity, dose response, cytotoxicity control for HIV Vif inhibitor project, cherry-picks (AID 652208); assay type: functional, cell-based
[18] = IGROV1 ovarian cancer cell cytotoxicity, dose response, PAX8 inhibitor project, plate reader, dry powder samples (AID 743043); assay type: functional, cell-based; conditions: IGROV-1
Paired box protein Pax-8 = Paired box protein Pax-8 (Homo sapiens, UniProt Q06710); assay: inhibitors of PAX8-driven TPO luciferase reporter, dose response, RMG-I cells, cherry-pick (AID 687027); assay type: functional, cell-based;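 further: luciferase reporter driven by Pax8 target thyroperoxidase promoter measured by SteadyGlo luminescence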
Chain of Paired box protein Pax-8 (Q06710 whole entry): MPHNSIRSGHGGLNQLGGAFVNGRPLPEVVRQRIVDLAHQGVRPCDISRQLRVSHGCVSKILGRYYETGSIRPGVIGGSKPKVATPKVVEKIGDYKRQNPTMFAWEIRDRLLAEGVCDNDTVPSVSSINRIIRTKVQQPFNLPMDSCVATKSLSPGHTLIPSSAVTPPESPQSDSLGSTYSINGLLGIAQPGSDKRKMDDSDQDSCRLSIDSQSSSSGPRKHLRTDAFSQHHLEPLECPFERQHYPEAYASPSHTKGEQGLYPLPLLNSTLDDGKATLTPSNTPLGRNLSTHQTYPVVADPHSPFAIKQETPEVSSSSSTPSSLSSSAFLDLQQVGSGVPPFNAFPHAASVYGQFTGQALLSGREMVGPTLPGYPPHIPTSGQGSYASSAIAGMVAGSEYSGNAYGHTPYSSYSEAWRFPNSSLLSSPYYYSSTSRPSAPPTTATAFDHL

[19] = NIH:OVCAR-3 ovarian cancer cell cytotoxicity, dose response, PAX8 inhibitor project, plate reader, dry powder samples (AID 743044); assay type: functional, cell-based
[20] = NIH/3T3 fibroblast cytotoxicity, dose response, cytotoxicity control for T. cruzi growth inhibitor project, cell-based, cherry-pick samples, set 2 (AID 651817); assay type: functional; conditions: NIH3T3
[21] = non-specific cell cytotoxicity, dose response, cytotoxicity control for PAX8 inhibitor project, plate reader, dry powder samples (AID 743021); assay type: functional, cell-based
[22] = miR-122 activators in hepatoma reporter cells, dose response, cell-based, Huh7 psiCHECK-miR122, Renilla luciferase, cherry-picked (AID 651956); assay type: functional;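 further: huh7 hepatoma cells stably carrying a psiCHECK-2 miR-122 sensor plasmid; renilla luciferase signal reporting endogenous miR-122 activity after 48 h compound exposure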
[23] = HEK293T cytotoxicity, dose response, cytotoxicity control for miR-122 modulator project, cell-based, activator set, cherry-pick (AID 720690); assay type: functional;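 further: HEK293T human cells scored for general mammalian cytotoxicity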
[24] = cytotoxicity in OVCAR8 ovarian cancer cells, dose response, PAX8 project, cell-based, plate reader, dry powder samples (AID 743197); assay type: functional; conditions: OVCAR-8
[25] = inhibitors of CMV-promoter luciferase reporter, dose response, counter-screen for Pax8 inhibitor project, cell-based, HEK293, luminescence, dry powder (AID 743020); assay type: functional

Chain of FAD-linked sulfhydryl oxidase ALR (P55789 whole entry): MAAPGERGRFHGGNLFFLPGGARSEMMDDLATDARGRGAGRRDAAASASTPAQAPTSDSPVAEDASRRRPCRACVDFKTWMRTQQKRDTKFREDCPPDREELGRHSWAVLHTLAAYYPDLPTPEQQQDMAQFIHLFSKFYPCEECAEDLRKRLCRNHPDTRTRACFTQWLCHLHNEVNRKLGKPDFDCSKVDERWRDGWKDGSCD

CN(C)P(=O)(C(Cl)=C(N1CCCCC1)N1CCCCC1)N(C)C
AC50 [1]: 41.1 µM (active)
EC50 [2]: > 91.1 µM (inactive)
EC50 [3]: > 91.1 µM (inactive)

COc1ccc(CNC(=O)c2nc(S(=O)(=O)Cc3ccccc3)ncc2Cl)cc1
IC50 [4]: 2.96 µM (active)
EC50 (Protein RecA): 4.07 µM (active)
IC50 (Beta Lactamase): 21 µM (inactive)
AC50 [5]: 7.01 µM (active)
AC50 [6]: 0.956 µM (active)
AC50 [7]: 30.8 µM (active)
AC50 [8]: 4.17 µM (active)

CCc1nnc(NS(=O)(=O)c2ccc(NC=C3C(=O)CC(C)(C)CC3=O)cc2)s1
IC50 (cells): 60.8 µM (inactive)

CCOc1ccc(S(=O)(=O)NCc2ccncc2)cc1NC(=O)c1ccccc1
IC50 (Protein Wnt-3a [9]): 33.2 µM (inactive)
IC50 (Protein Wnt-3a [10]): > 21.8 µM (inactive)
IC50 [11]: > 80 µM (inactive)

CCc1nc(C)cc2c1sc1ccccc12
EC50 [2]: > 91.2 µM (inactive)
EC50 [3]: > 91.2 µM (inactive)

O=C1NC(=O)N(c2ccc(Cl)cc2)C(=O)/C1=C\Nc1ccc(S(=O)(=O)Nc2nccs2)cc1
IC50 (cells): 74.7 µM (inactive)

O=C1/C(=C\c2ccc([N+](=O)[O-])cc2)CS(=O)(=O)C/C1=C/c1ccc([N+](=O)[O-])cc1
IC50 [12]: > 80 µM (inactive)
AC50 [13]: 0.353 µM (active)
IC50 [4]: 0.93 µM (active)
CC50 (Vero): 0.46 µM (active)
IC50 (Beta Lactamase): 36.4 µM (inactive)
IC50 (Genome polyprotein): > 100 µM (active)
IC50 [14]: 24.8 µM (active)
CC50 [15]: 25 µM (active)
IC50 [16]: 2 µM (active)

O=C(c1cc(-c2ccncc2)nc2ccccc12)N1CCN(Cc2ccccc2)CC1
AC50 [17]: > 52 µM (inactive)

Cc1ccc(S(=O)(=O)Nc2ccc3c(c2)CC(=O)N([C@@H](C)CO)C[C@@H](C)[C@H](CN(C)Cc2ccc(Cl)c(Cl)c2)O3)cc1
AC50 [18]: 49.9 µM (active)
AC50 (Paired box protein Pax-8): 5.67 µM (active)
AC50 [19]: 31.8 µM (active)
AC50 [20]: 12.3 µM (active)

COc1cc(C=C2C(=O)C=CC2=O)ccc1O
AC50 (Paired box protein Pax-8): 1.63 µM (active)
AC50 [21]: 19.1 µM (active)

CN1C(=O)c2cc(NS(=O)(=O)c3ccc(Cl)cc3)ccc2OC[C@@H]2O[C@H](CC(=O)N3CCc4ccccc4C3)CC[C@H]21
AC50 [22]: 19.1 µM (active)
AC50 [23]: 46.9 µM (active)

C[C@H](CO)N1C[C@H](C)[C@H](CN(C)Cc2ccc(Cl)c(Cl)c2)Oc2ccc(NS(=O)(=O)c3ccc(F)cc3)cc2CC1=O
AC50 [20]: 9.99 µM (active)

COc1ccc(NC(=O)N(C)C[C@H]2OCCCC[C@@H](C)Oc3ccc(NC(=O)Nc4ccc(C(F)(F)F)cc4)cc3C(=O)N([C@@H](C)CO)C[C@@H]2C)cc1
AC50 [24]: > 70 µM (inactive)
AC50 [25]: 41 µM (active)
AC50 (Paired box protein Pax-8): 3.41 µM (active)
AC50 [19]: 24 µM (active)

CC(C)CNc1cc(NC(=O)c2ccccc2)ncn1
IC50 (Protein Wnt-3a [10]): > 21.8 µM (inactive)

Source: ChEMBL document CHEMBL1201862, “PubChem BioAssay data set” (2004)
